Experiments:
[1] = tested on: human peripheral blood mononuclear cells (lymphocytes); assay: Inhibition of the mitogenic (PHA) stimulation of human lymphocytes (PBMC), [3H]thymidine; format: cell-based
Method: Buffy coats from the Beilinson Medical Center Blood Bank or 20 mL samples of heparinized venous blood from healthy or atopic donors were used as a source for human peripheral blood mononuclear (PBM) cells. PBM cells were separated by Ficoll-Hypaque density gradient centrifugation. […] The nonadhering cells were stirred gently and carefully collected.
PHA (1 μg/mL), indomethacin (5 μg/mL) and various xanthine derivatives were added at initiation of culture. Indomethacin was dissolved in ethanol. […] [methyl-^3 H]Thymidine (1 μCi/well) was added at 68 h, and the cells were harvested 4 h later using an automated cell harvester (Dynatech, Alexandria, Va.). Unless otherwise stated, all cultures were performed in triplicate.

[2] = tested on: human psoriatic fibroblasts; assay: Inhibition of human psoriatic fibroblast proliferation; format: cell-based; conditions: Homo sapiens, Fibroblast
Method: PTX and PPF, alone as well as PTX in combination with other drugs were tested.
Human psoriatic fibroblasts were obtained from skin biopsies of 5 individuals with plaque psoriasis. Cells in the 3-7th passages were used for the experiments. Human psoriatic fibroblasts (4×10^3 -6×10^3 cells) were added in 24-well plates and cultured in Dulbecco's Modified Eagle's Medium (DMEM) supplemented with 10% fetal calf serum, 2 mM L-glutamine, 100 u/ml penicillin, 100 μg/ml streptomycin (DMEM+) at 5% CO2 and 95% humidity at 37° C.
After 3 days, medium was replaced with fresh DMEM+(control) or with medium containing various concentrations of compounds alone or in combination with pentoxifylline and incubation was continued for additional 3 days. Stock solutions (10^-1 -10^-2 M) of the compounds tested were made in ethanol. For these compounds special control (DMEM+ with 1% ethanol) was made. The compounds tested together with pentoxifylline were 3-heptanone, 3,3-dimethylbutyric acid, lipoic acid, 1,25-dihydroxyvitamin D3 betamethasone dipropionate and hydrocortisone-17-butyrate.
On the last day of experiments, the medium was aspirated and the cells were obtained by trypsinization. The number of cells in each well was counted by the use of an hemocytometer.
The percentage of inhibition of fibroblast proliferation was calculated according to the formula: [formula] and the results are shown in Tables 3 and 4.

atopic dermatitis = assay: Clinical trial in atopic dermatitis, 2% pentoxifylline cream vs vehicle, bilateral comparison; format: in vivo, human patients; conditions: 2% cream twice a day, four weeks, seven patients aged 3-10 years
Method: A randomized double blind, vehicle controlled, bilateral comparison study was performed, to determine the effect of pentoxifylline (PTX) in the treatment of atopic dermatitis. The study medication contained 2% pentoxifylline in an oil-in-water cream vehicle, and the control treatment consisted of the same vehicle without the pentoxifylline. The exact formulations appear in Table 7.
Seven patients (aged 3-10 years) were enrolled in the trial and evaluated for pruritus, erythema, dryness/scaling and exudate. Pentoxifylline cream, or the placebo (the identical cream, but without the pentoxifylline) were dispensed in identical tubes that were marked for application to right and left sides. Patients were instructed to apply medication twice a day (morning and evening) for four weeks.

[3] = tested on: human psoriatic skin transplants; assay: Topical treatment of human psoriatic skin transplanted to nude mice (epidermal thickness / acanthosis); format: in vivo, human skin on outbred Balb/C nude mice
Source text: Human psoriatic skin from psoriatic patients was transplanted to nude mice essentially according to the method of G. Kreuger et al., Prog. in Dermatol. […] The donors had stable plaque type psoriasis for at least one year preceding biopsy and had not received systemic anti-psoriatic therapy for the 4 weeks preceding biopsy. They had also not received topical therapy or U.V. therapy for the two weeks preceding biopsy. […] In this method the area (A) of the psoriasis in four main body parts (head (H), trunk (T), upper extremities (U) and lower extremities (L)) is assigned a value from 0-6 depending on the extent of psoriasis where O reflects no involvement and 6 reflects 90-100% involvement. The severity of the lesion is assessed based on three parameters: Erythema (E), Desquamation (scaling) (D) and Infiltration (I). The severity of each of these parameters is measured on a scale of 0-4 where 0 is no involvement and 4 is very sever. The total severity score is calculated according to the following formula: […]
Split thickness biopsies of nonpustular psoriatic human tissue, 4×5 cm and 0.4 mm thick were obtained from the edge of established plaques from various donor patients. […] The grafts were allowed to heal for one week prior to topical application of the test preparations.
Outbred Balb/C nude mice, 2 to 3 months of age were used in this study. The mice were obtained from the pathogen free animal breeding facility at the University of Tel Aviv (Israel) and were raised in the pathogen-free animal facility at the Faculty of Medicine, Technion-Israel Institute of Technology, Haifa, Israel.
On the day following the end of treatment the severity of the psoriatic lesion was assessed and then the animals were sacrificed and the entire graft was excised and divided into two equal sections. One section was used to assess changes in the rate of proliferation by autoradiography (tritiated thymidine incorporation) while the other section was sectioned for microscopic histological assessment, including acanthosis and parakeratosis.
In another series of experiments, human psoriatic skin of various severities was transplanted on each of 28 nude mice. The graft area was treated with various preparations as described above.
The treatments were applied as creams and were administered as described above.

psoriasis lesions = assay: Clinical trial in psoriasis, 2% pentoxifylline cream vs placebo, right-left comparison, PASI; format: in vivo, human patients; conditions: for decrease in PASI: 2% cream twice daily
Method: A clinical trial was performed comparing a cream composition of 2% pentoxifylline (formulation A of Example 1) to placebo. The trial was randomized, double blind, placebo controlled, right-left comparison within patient design.
Two similar plaque areas of psoriasis (i.e. both legs or forearms), were selected for treatment in each patient. In each patient one area on one side of the body was treated with 2% pentoxifylline formulated as in Example 1 and the other area on the other side of the body was treated with placebo cream formulated identically but without the pentoxifylline. The cream (formulation A in Example 1) was applied by the patient twice daily.
Patients stopped all forms of topical psoriatic treatment two weeks before entry into the study.
Systemic psoriatic treatments and phototherapy were stopped one month before entry into the study.
The dermatological assessment was performed as follows. The dermatologist measured the area of the lesion in cm^2. The severity of each lesion was evaluated by grading erythema, scaling and thickness on a 0-4 scale where 0=none, 1=slight, 2=moderate, 3=severe and 4=exceptionally severe.
Based on these measurements the Psoriasis Area Severity Index (PASI) was calculated for each of the 2 lesions on each patient as follows:
PASI=Area x (Erythema+Thickness+Scaling)

With CC(=O)CCCCn1c(=O)c2c(ncn2C)n(C)c1=O [Pentoxifylline, 3,7-dimethyl-1-(5-oxohexyl)-xanthine] as the molecule, how does the inhibition at 1000 µM ([1]; Homo sapiens, Lymphocyte, 1 × 10^-3 M, lymphocytes from healthy volunteers, read-out: net inhibitory effect on the mitogenic stimulation of human lymphocytes) read?
The inhibition at 1000 µM was 70%.

And the inhibition at 300 µM ([1]; Homo sapiens, Lymphocyte, 3 × 10^-4 M, lymphocytes from healthy volunteers, read-out: net inhibitory effect on the mitogenic stimulation of human lymphocytes)?
Its inhibition at 300 µM is 46%.

What about the “inhibition of the mitogenic stimulation compared with the other xanthine derivatives (in words)” value ([1]; vs theophylline and diphylline, healthy volunteers) of the same molecule?
The value was “inhibited the mitogenic stimulation to a far greater effect than the other xanthine derivatives”.

What about the inhibition at 1000 µM ([2]; PTX alone, 10^-3 M, Table 3) of the same molecule?
The inhibition at 1000 µM was 16.9%.

And the inhibition at 100 µM ([2]; compound alone, 10^-4 M, Table 4)?
Its inhibition at 100 µM is 5.9%.

And the “improvement of pruritus, erythema, dryness/scaling and exudate (in words)” value (atopic dermatitis)?
Its value is “significantly improved each of the four symptoms evaluated”.

And the “% Improvement (Decrease in Thickness)” value ([3]; 2% PTX cream, 7 days, donor patient 3 (PASI 7.6))?
The value was 40%.

And the “% Improvement (Decrease in Thickness)” value ([3]; 2% PTX cream, 7 days, donor patient 4 (PASI 17.6))?
Its value is 22%.

And the “% Improvement (Decrease in Thickness)” value ([3]; 2% PTX cream, 7 days, donor patient 6 (PASI 3.8), placebo 0)?
The value was 30%.

What about the “Average Improvement (decrease in epidermal thickness)” value ([3]; 2% PTX cream, 7 days, placebo 5%) of the same molecule?
Its value is 31%.

And the “Epidermal Thickness (Acanthosis) after 7 days treatment” value (“Epidermal Thickness (Acanthosis)” below) ([3]; 2% PTX cream, donor patient 3 (PASI 7.6), before treatment 46 μm)?
The value was 28 μm.

What about the “Epidermal Thickness (Acanthosis)” value ([3]; 2% PTX cream, donor patient 4 (PASI 17.6), before treatment 54 μm) of the same molecule?
Its value is 42 μm.

And the “Epidermal Thickness (Acanthosis)” value ([3]; 2% PTX cream, donor patient 6 (PASI 3.8), before treatment 55 μm)?
The value was 39 μm.

What about the “SUCCESS RATIO (decrease of at least 15% in epidermal thickness)” value ([3]; 2% pentoxifylline cream (Example 1A), 7 days topical, placebo 0/6) of the same molecule?
The value was 6/10.

What about the “effectiveness in treating psoriasis (in words)” value ([3]; experiment of Table 1, transplanted skin) of the same molecule?
Its value is “almost as effective as steroids in treating psoriasis and far more effective than dyphylline”.

What about the “effectiveness in treating psoriasis (in words)” value ([3]; experiment of Table 2, 28 nude mice) of the same molecule?
Its value is “almost as effective as topical steroids in treating psoriasis and far more effective than dyphylline”.

And the “effectiveness in the treatment of psoriasis (in words)” value ([3]; summary of the animal model experiments)?
Its value is “effective in the treatment of psoriasis”.

What about the “decrease in PASI” value (psoriasis lesions; Patient 1, 1.5 weeks, placebo side 0%) of the same molecule?
Its value is 58%.

What about the “decrease in PASI” value (psoriasis lesions; Patient 2, 2 weeks, placebo side 34%) of the same molecule?
The value was 53%.

And the “decrease in PASI” value (psoriasis lesions; Patient 3, 2 weeks, placebo side 45%)?
Its value is 73%.

What about the “decrease in PASI” value (psoriasis lesions; Patient 3, 6 weeks, placebo side 56%) of the same molecule?
The value was 90%.

What about the “decrease in PASI” value (psoriasis lesions; Patient 4, 6 weeks, placebo side 73%) of the same molecule?
The value was 91%.

What about the “decrease in PASI” value (psoriasis lesions; Patient 4, 8 weeks, placebo side 57%) of the same molecule?
Its value is 88%.

What about the “decrease in PASI” value (psoriasis lesions; Patient 5, 2 weeks, placebo side 25%) of the same molecule?
Its value is 73%.

And the “effectiveness in the treatment of psoriatic lesions (in words)” value (psoriasis lesions; topical, summary of clinical trials)?
The value was “very effective therapeutic for the treatment of psoriatic lesions”.
